Reference: patent US20240300935A1, “Nitrogen Oxide Donors of Beraprost Derivative and the Pharmaceutical Compositions with the Use Thereof” (GUANGZHOU KEMROCMED CO., LTD., priority 2021, published 2024)

Experiments:
[1] = system: renal tubular epithelial cells in acute renal failure; test: Renal tubular protective effect of acute renal failure (co-culture with isolated cells); type: cell-based, rat; settings: renal tubular epithelial cells from acute renal failure rats, 200 μg/mL
Source text: • 1) Test materials, glycerol (MacLean Company); CCK-8 kit, Annexin V-PE cell apoptosis detection kit, superoxide dismutase activity detection kit, malondialdehyde detection kit (Biyun Biotech); first anti-cysteine aspartate protease, caspase 3 and 9, B lymphocytoma-2 gene, Bcl-2-associated X protein (BAX, anti-rabbit), TGF-β 1, smad 3 (abcam, USA). Protein gel imager, microplate reader, and flow cytometer (Beckman Coulter, Type CytoFLEX). Clean-grade SD rats were purchased from Yangzhou University. • 2) Test method, the model of acute renal failure of rat hind limb injection was used. After 24 h, the level of BUN and Cr increased in rat serum, vascular necrosis of renal interstitium, and inflammatory cell infiltration were regarded as successful model establishment. Some renal tissues from model animals were taken for in vitro culture, renal tubular epithelial cells were isolated and identified, and test drug co-culture (0-24 hours) was added. Changes of various biochemical indicators and apoptosis were determined. […] Conclusion Test compounds can promote tubular epithelial cells proliferation, inhibit apoptosis, inhibit oxidative stress, and slow the damage of renal tubular epithelial cells by inhibiting the expression of proapoptotic proteins.

[2] = system: platelet aggregation induced by ADP; test: Antiplatelet aggregation effect, ADP-induced, turbidimetry in platelet-rich plasma; type: cell-based; settings: Homo sapiens, 2 min; platelet rich plasma of healthy subjects; 25 μL of 50 nM compound solution in 225 μL plasma, 37° C. 2 min; ADP final 2 μM; read-out: The rate of platelet aggregation inhibition
Procedure: • 1) Experimental material: ADP, epinephrine, collagen (bilBio) • 2) Experimental method: blood samples provided by healthy subjects were mixed blood with 3.8% citric acid solution and centrifuged at 160 r/min to obtain platelet-rich plasma. To calibrate the data, the obtained platelet-rich plasma was further centrifuged at 2000 r/min to obtain platelet-poor plasma, stored in a −20° C. refrigerator. Testing was performed using Born I's turbiometry. 225 μL of platelet rich plasma was added to the reaction cup, the embodiment compound was configured as 50 nM solution (25 m M Tris-acetate and 120 m M N a Cl), 25 μL of embodiment compound solution was added and after incubation at 37° C. for 2 min, 5 μL of ADP (final concentration 2 μM) was added for platelet aggregation induction. To assess the degree of platelet aggregation, the maximum absorbance value took the data after ADP, thus calculating the inhibition rate of ADP-induced platelet aggregation by each embodiment compound. According to the data in Table 6 below, the compounds of the present application embodiment all have a good effect of inhibiting the platelet aggregation induced by ADP.

[3] = system: rats with hypoxic pulmonary hypertension; test: In vivo test in rats with hypoxic pulmonary hypertension; design: species or system rat; settings: SD male rats, low pressure low oxygen chamber, 5 mg/kg, after four weeks, vs model group
Procedure: • 1) Experimental instruments and materials, HX-200 animal ventilator, and SD male rats used in the experiment were all purchased from Yangzhou University. All control groups were reared in a normal environment, and the administration intervention and model groups were reared in the low pressure low oxygen chamber (air pressure 50 kPa, oxygen concentration 10%). • 2) Compound 15 was dissolved using DMSO/solutol/water (10/10/80). In the intervention group, the dose was 5 mg/kg, all rats were weighed weekly, survival was recorded, and pulmonary artery pressure was measured after four weeks. Rats (3 ml/kg) were anesthetized with chloral hydrate (100 g/L), fixed in the supine position, tracheotomy, and breathing assisted with a small animal ventilator (frequency 60 beats/min, 5 ml, breath ratio 4:5). Free the left third rib, a catheter connecting one end to the tension transducer was sent to the pulmonary artery, and the mean pulmonary artery pressure (mP AP) was recorded through the BL-420E Biofunction experimental system. […] The results of FIG. 1 show the effect of beraprost derivative compound 15.

[4] = system: postmenopausal osteoporosis mouse model; test: Therapeutic effect of osteoporosis, postmenopausal osteoporosis mouse model (ovariectomy); type: in vivo; design: Tb · N: unit not given here
Source text: • 1) Test materials; 1. Animal clean grade C57BL/6 strain, 8-10 weeks old not pregnant females were purchased from Yangzhou University. 2. Main reagents and instruments, Bujiale (estradiol valerate tablets, Bayer); mouse osteocalcin (osteocalcin, OC) enzyme-linked immunotest kit, alkaline phosphatase (alkaline phosphatase, ALP) test kit, tartrate acid phosphatase (StrACP) test kit (all the above kits were purchased in Nanjing). Dual-energy X-ray bone densitometer (HOLOGIC); ECLIPSE 50i microscope (Nikon); MUTISKANMK3 microplate reader (Thermo); tissue slicing equipment (including KD-TS3D1 biological tissue automatic dehydrmachine (Zhejiang Cody), TB-718 biological tissue automatic embedding machine (Hubei), R138 rotary slicer (Hubei), TK-212 automatic constant temperature drift instrument (Hubei), TK-213 automatic constant temperature dryer (Hubei), etc.). • 2) Test method: A animals were grouped, and the random method divided the female mice into 4 groups, namely, sham operation group, model group, positive drug group, and test drug group. B Preparation of postmenopausal osteoporosis mouse model, chloral hydrate anesthesia and removed the ovaries in the lying position. In the sham group, only the same volume of fat tissue near the ovaries was removed. Vaginal smear was performed on days 4-8 after ovariectomy to determine if the ovariectomy was complete. Method of c, on the third day after the operation, positive control drug (0.1 mL/10 g gavage), equal volume of 0.9%sodium chloride solution in sham group and model group, continuous gavage for 28 d. Test ResResults test: Blood and bone tissue samples after day 28. The following indicators were tested: (1) determination of bone density, lumbar L4-6 measurement of bone density by double energy X-ray bone density instrument. (2) Observation of bone tissue and morphology, the bone tissue and morphology changes were observed by tibial HE staining, mainly testing the trabecular volume ratio (bone volume/tissue volume, BV/TV) and the number of trabecular bone (trabecular bone number, Tb. N) and trabecular separation (trabecular separation, Tb. And sp) were the quantitative evaluation index. (3) For the determination of biological indicators ALP, StrACP, OC, and E 2 in mouse serum, blood was collected by enucleation method, and by kit and enzyme-linked adsorption assay.

[5] = In vitro NO release test (Griess method); settings: 200 μM test compound solution mixed with 200 μM L-cysteine solution, 37° C.
Procedure: NO was transiently oxidized in aqueous solution using released NO by Griess' method, NO^2− And Griess reagent form a complex, which has strong UV uptake at 540 nm to determine the amount of NO released by the compound. • 1) Preparation of solution: blank solution: 10 mL DMSO and 190 m L PBS mixed; G riess Reagent: sulfonamide (4.0 g), N-(1-naphthalyl) ethylenediamine dihydrochloride (0.2 g) and 10 mL 85% H3PO4 dissolved in 90 mL of distilled water, Blow until clear solution; L-cysteine solution: after accurate weighing of L-cysteine, Add a certain amount of PBS, Prepare a weighed 200 μM solution; Test compound solution: the exact weighing of the test compound, Dissolved in D MSO and diluted to a concentration of 1 mM, Then, when diluted in PBS, To a concentration of 200 μM.
2) Formulation of standard curve equation: prepare sodium nitrite solution concentration: 0 ,0 , 1, 3, 6, 12.5, 25, 50, 100 μmol/L, 150 μL of each concentration, add 50 μL of Griess reagent mix, incubated in 37° C. constant temperature shaker for 30 min, the plate reader measured each tube absorbance at 540 nm, after subtracting the blank solution reading, the standard curve equation . . . 78.56.13.25 • 3) Test compound test: mix 2 mL of the test compound solution and L-cysteine solution, incubate in 37° C. constant temperature shakers for 120 min, take 150 μL of each mixture, add 50 μL of Griess reagent, then incubate in 37° C. constant temperature shaker for 30 min, the microplate measured each tube absorbance at 540 nm, then subtract the blank solution reading and substitute the value into the standard curve equation to obtain NO release.

[6] = tibial HE staining, ovariectomised C57BL/6 mice, gavage 28 d

**Q.** Which “B AX protein level” value [1] does the source give for CC#CCC(C)[C@@H](O)/C=C/[C@H]1[C@@H]2c3cccc(CCCC(=O)OCC4CCCC(CO[N+](=O)[O-])C4)c3O[C@@H]2C[C@@H]1O (stereo partly shown) [Compound 15] here?
**A.** The value was 0.32 ± 0.12.

**Q.** And the “B CL2 protein level” value [1]?
**A.** Its value is 0.56 ± 0.11.

**Q.** And the MDA [1]?
**A.** The MDA was 489 ± 38 Nnol/g protein.

**Q.** And the “S mad3 protein level” value [1]?
**A.** Its value is 0.19 ± 0.07.

**Q.** And the SOD [1]?
**A.** The SOD was 1016 ± 117 U/g egg white.

**Q.** What about the “T GF-β1 protein level” value [1] of the same compound?
**A.** Its value is 0.24 ± 0.05.

**Q.** And the “The rate of apoptosis” value [1]?
**A.** Its value is 9 ± 0.7%.

**Q.** What about the caspase3 protein level [1] of the same compound?
**A.** The caspase3 protein level was 0.28 ± 0.06.

**Q.** And the caspase9 protein level [1]?
**A.** The caspase9 protein level was 0.48 ± 0.1.

**Q.** And the inhibition at 0.005 µM [2]?
**A.** The inhibition at 0.005 µM was 92%.

**Q.** What about the “mean pulmonary artery pressure (mPAP)” value [3] of the same compound?
**A.** Its value is “lower compared with the model group”.

**Q.** And the ALP ([4]; mouse serum, day 28)?
**A.** Its ALP is 19 ± 2.2 King-Armstrong unit/100 mL.

**Q.** And the E2 ([4]; mouse serum, day 28)?
**A.** Its E2 is 35 ± 4 ng/mL.

**Q.** And the OC ([4]; mouse serum, day 28)?
**A.** The OC was 1.7 ± 0.2 ng/mL.

**Q.** What about the “Str ACP” value ([4]; mouse serum, day 28) of the same compound?
**A.** Its value is 41 ± 3.6 U/L.

**Q.** And the BV/VT [4, 6]?
**A.** The BV/VT was 0.29 ± 0.05.

**Q.** What about the “Tb · N” value [4, 6] of the same compound?
**A.** The value was 7.5 ± 0.6.

**Q.** And the “Tb · sp” value [4, 6]?
**A.** Its value is 152 ± 15 μm.

**Q.** And the “120 min NO^2−” value [5]?
**A.** Its value is 12.7 µM.
